Experimental data taken from ChEMBL document CHEMBL5505966, “Synthesis and pharmacological characterization of conformationally restricted 2-amino-Adipic acid analogs and carboxycyclopropyl glycines as selective metabotropic glutamate 2 receptor agonists” (Eur J Med Chem, 2024).
Activity calls are given as the source filed them. The calls are words filed in the database; no cut-off is given here.

What was measured:
[1] = target: Metabotropic glutamate receptor 3 (Homo sapiens, UniProt Q14832); assay: Agonist activity at human recombinant mGluR3 receptor assessed as inhibition of forskolin-stimulated [3H]cAMP accumulation incubated for 20 mins by SPA kit analysis; format: functional
Chain of Metabotropic glutamate receptor 3 (Homo sapiens, UniProt Q14832) (Q14832 whole entry): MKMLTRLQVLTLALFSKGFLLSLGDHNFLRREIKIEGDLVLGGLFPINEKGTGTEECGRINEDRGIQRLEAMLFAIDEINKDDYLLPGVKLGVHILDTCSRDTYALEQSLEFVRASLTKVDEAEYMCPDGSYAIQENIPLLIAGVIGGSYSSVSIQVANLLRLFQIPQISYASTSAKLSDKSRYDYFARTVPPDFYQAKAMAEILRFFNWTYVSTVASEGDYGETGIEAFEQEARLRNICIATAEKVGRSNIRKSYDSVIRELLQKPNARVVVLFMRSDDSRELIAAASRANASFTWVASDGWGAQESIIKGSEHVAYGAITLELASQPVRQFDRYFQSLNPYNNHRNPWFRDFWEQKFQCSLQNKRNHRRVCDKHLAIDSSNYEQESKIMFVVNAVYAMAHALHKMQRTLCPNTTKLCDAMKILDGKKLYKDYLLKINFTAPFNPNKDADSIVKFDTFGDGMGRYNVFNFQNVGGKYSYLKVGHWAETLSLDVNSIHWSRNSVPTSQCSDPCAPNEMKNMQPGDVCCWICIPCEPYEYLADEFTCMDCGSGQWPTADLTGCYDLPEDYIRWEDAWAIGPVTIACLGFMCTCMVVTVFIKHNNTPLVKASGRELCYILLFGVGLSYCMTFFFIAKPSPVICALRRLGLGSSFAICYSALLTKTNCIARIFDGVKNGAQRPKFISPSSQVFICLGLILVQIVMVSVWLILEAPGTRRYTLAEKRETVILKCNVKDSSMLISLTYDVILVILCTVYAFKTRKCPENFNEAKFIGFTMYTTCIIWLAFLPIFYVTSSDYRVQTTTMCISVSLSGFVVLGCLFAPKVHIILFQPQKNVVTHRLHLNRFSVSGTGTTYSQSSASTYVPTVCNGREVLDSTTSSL

[2] = target: Metabotropic glutamate receptor 2 (Rattus norvegicus) (UniProt P31421); assay: Agonist activity at rat mGluR2 receptor expressed in HEK293 cells at 30 uM by IP-1 HTRF assay; format: functional, cell-based
Chain of Metabotropic glutamate receptor 2 (Rattus norvegicus) (P31421 19-872 limits assumed): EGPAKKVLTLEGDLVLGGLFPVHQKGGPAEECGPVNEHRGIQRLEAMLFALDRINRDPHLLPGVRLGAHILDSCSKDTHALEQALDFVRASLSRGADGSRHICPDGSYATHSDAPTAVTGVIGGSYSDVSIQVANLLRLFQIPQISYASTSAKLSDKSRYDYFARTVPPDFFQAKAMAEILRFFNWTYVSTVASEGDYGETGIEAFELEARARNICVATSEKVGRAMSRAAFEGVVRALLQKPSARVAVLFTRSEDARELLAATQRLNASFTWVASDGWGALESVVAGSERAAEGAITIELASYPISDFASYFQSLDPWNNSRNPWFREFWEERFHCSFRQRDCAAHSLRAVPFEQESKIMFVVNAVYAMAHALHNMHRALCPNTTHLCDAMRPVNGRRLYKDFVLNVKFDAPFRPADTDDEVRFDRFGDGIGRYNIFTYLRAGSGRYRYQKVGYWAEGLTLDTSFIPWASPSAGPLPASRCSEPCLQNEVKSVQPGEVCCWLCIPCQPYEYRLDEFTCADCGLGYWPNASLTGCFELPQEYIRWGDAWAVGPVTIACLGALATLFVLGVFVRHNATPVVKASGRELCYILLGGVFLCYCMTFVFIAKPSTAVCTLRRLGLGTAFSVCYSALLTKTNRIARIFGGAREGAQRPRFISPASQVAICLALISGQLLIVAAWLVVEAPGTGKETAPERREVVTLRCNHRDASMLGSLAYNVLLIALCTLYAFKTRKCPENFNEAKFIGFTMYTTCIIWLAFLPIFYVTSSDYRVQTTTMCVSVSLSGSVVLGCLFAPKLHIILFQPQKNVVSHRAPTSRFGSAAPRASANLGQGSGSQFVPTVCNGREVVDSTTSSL

[3] = target: Metabotropic glutamate receptor 5 (Rattus norvegicus) (UniProt P31424); assay: Antagonist activity at rat mGluR5 receptor expressed in HEK293 cells by IP-1 HTRF assay; format: functional, cell-based
Chain of Metabotropic glutamate receptor 5 (Rattus norvegicus) (P31424 21-1203 limits assumed): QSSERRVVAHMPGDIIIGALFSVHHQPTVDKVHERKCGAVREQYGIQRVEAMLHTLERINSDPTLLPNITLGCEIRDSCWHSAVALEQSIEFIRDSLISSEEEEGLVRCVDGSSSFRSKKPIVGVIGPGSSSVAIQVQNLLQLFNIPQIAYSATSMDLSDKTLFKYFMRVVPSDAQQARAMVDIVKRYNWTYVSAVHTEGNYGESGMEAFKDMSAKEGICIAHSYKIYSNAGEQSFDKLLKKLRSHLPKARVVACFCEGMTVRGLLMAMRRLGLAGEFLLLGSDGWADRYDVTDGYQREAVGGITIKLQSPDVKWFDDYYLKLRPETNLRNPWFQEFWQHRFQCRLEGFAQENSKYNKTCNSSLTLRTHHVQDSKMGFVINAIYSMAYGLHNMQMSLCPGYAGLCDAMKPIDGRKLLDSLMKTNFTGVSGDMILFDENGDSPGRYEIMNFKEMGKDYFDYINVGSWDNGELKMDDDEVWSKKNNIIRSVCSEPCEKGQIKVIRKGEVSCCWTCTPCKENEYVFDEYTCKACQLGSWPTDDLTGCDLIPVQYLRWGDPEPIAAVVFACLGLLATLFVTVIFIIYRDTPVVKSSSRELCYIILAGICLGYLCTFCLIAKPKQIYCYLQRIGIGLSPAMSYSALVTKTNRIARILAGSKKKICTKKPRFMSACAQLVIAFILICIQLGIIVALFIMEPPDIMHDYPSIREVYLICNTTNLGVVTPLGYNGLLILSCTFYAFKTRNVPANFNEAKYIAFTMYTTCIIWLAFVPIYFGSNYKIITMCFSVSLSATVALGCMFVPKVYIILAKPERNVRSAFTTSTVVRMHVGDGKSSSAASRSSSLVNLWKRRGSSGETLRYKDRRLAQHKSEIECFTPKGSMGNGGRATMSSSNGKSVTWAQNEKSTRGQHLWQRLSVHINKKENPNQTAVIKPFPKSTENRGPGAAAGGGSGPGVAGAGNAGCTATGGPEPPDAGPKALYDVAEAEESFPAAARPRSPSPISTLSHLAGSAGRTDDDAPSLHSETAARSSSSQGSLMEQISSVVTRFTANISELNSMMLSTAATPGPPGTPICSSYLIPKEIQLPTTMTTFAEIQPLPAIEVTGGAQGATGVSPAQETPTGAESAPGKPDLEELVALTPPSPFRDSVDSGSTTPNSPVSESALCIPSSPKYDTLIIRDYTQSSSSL

[4] = target: Metabotropic glutamate receptor 1 (Rattus norvegicus) (UniProt P23385); assay: Agonist activity at rat mGluR1 receptor expressed in HEK293 cells at 30 uM by IP-1 HTRF assay; format: functional, cell-based
[5] = target: Metabotropic glutamate receptor 8 (Rattus norvegicus) (UniProt P70579); assay: Antagonist activity at rat mGluR8 receptor expressed in HEK293 cells by IP-1 HTRF assay; format: functional, cell-based
[6] = target: Metabotropic glutamate receptor 4 (Rattus norvegicus) (UniProt P31423); assay: Antagonist activity at rat mGluR4 receptor expressed in HEK293 cells by IP-1 HTRF assay; format: functional, cell-based
[7] = target: Metabotropic glutamate receptor 5 (Rattus norvegicus) (UniProt P31424); assay: Agonist activity at rat mGluR5 receptor expressed in HEK293 cells at 30 uM by IP-1 HTRF assay; format: functional, cell-based
[8] = target: Metabotropic glutamate receptor 6 (Rattus norvegicus) (UniProt P35349); assay: Agonist activity at rat mGluR6 receptor expressed in HEK293 cells at 30 uM by IP-1 HTRF assay; format: functional, cell-based
[9] = target: Metabotropic glutamate receptor 3 (Rattus norvegicus) (UniProt P31422); assay: Agonist activity at rat mGluR3 receptor expressed in HEK293 cells at 30 uM by IP-1 HTRF assay; format: functional, cell-based
[10] = target: Metabotropic glutamate receptor 8 (Rattus norvegicus) (UniProt P70579); assay: Agonist activity at rat mGluR8 receptor expressed in HEK293 cells at 30 uM by IP-1 HTRF assay; format: functional, cell-based
[11] = target: Metabotropic glutamate receptor 6 (Rattus norvegicus) (UniProt P35349); assay: Antagonist activity at rat mGluR6 receptor expressed in HEK293 cells by IP-1 HTRF assay; format: functional, cell-based
[12] = target: Metabotropic glutamate receptor 2 (Rattus norvegicus) (UniProt P31421); assay: Antagonist activity at rat mGluR2 receptor expressed in HEK293 cells by IP-1 HTRF assay; format: functional, cell-based
[13] = target: Metabotropic glutamate receptor 3 (Rattus norvegicus) (UniProt P31422); assay: Antagonist activity at rat mGluR3 receptor expressed in HEK293 cells by IP-1 HTRF assay; format: functional, cell-based
[14] = target: Metabotropic glutamate receptor 1 (Rattus norvegicus) (UniProt P23385); assay: Antagonist activity at rat mGluR1 receptor expressed in HEK293 cells by IP-1 HTRF assay; format: functional, cell-based
[15] = target: Metabotropic glutamate receptor 4 (Rattus norvegicus) (UniProt P31423); assay: Agonist activity at rat mGluR4 receptor expressed in HEK293 cells at 30 uM by IP-1 HTRF assay; format: functional, cell-based
[16] = target: Metabotropic glutamate receptor 7 (Rattus norvegicus) (UniProt P35400); assay: Agonist activity at rat mGluR7 receptor expressed in HEK293 cells at 30 uM by IP-1 HTRF assay; format: functional, cell-based
Chain of Metabotropic glutamate receptor 7 (Rattus norvegicus) (P35400 whole entry): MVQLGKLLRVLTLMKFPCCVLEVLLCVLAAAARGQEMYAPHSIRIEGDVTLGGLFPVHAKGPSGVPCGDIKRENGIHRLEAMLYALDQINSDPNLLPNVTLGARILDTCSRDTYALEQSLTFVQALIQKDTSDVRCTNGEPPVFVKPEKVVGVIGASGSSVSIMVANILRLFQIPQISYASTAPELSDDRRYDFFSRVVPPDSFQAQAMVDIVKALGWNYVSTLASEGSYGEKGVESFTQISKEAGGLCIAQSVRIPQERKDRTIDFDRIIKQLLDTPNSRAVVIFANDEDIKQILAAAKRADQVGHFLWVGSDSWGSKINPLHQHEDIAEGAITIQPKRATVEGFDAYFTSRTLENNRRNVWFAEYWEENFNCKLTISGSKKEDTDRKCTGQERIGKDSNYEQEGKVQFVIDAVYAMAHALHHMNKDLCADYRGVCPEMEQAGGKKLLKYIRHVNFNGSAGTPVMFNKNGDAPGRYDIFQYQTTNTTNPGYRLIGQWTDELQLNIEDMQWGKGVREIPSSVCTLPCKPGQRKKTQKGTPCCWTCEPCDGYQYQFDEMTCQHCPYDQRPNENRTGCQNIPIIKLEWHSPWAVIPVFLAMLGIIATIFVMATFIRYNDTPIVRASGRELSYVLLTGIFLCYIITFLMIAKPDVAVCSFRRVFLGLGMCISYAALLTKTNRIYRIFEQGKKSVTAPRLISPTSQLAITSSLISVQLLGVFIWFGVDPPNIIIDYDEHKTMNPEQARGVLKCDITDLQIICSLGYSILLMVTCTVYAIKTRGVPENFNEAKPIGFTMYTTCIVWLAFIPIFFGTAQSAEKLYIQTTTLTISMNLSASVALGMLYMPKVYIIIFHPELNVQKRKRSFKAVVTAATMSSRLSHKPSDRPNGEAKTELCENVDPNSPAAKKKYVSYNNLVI

[17] = target: Metabotropic glutamate receptor 7 (Rattus norvegicus) (UniProt P35400); assay: Antagonist activity at rat mGluR7 receptor expressed in HEK293 cells by IP-1 HTRF assay; format: functional, cell-based
[18] = target: Metabotropic glutamate receptor 2 (Homo sapiens, UniProt Q14416); assay: Agonist activity at human recombinant mGluR2 receptor assessed as inhibition of forskolin-stimulated [3H]cAMP accumulation incubated for 20 mins by SPA kit analysis; format: functional
[19] = target: Metabotropic glutamate receptor 2 (Rattus norvegicus, UniProt P31421); assay: Agonist activity at rat mGluR2 receptor expressed in HEK293 cells by IP-1 HTRF assay; format: functional, cell-based
Chain of Metabotropic glutamate receptor 2 (Rattus norvegicus, UniProt P31421) (P31421 whole entry): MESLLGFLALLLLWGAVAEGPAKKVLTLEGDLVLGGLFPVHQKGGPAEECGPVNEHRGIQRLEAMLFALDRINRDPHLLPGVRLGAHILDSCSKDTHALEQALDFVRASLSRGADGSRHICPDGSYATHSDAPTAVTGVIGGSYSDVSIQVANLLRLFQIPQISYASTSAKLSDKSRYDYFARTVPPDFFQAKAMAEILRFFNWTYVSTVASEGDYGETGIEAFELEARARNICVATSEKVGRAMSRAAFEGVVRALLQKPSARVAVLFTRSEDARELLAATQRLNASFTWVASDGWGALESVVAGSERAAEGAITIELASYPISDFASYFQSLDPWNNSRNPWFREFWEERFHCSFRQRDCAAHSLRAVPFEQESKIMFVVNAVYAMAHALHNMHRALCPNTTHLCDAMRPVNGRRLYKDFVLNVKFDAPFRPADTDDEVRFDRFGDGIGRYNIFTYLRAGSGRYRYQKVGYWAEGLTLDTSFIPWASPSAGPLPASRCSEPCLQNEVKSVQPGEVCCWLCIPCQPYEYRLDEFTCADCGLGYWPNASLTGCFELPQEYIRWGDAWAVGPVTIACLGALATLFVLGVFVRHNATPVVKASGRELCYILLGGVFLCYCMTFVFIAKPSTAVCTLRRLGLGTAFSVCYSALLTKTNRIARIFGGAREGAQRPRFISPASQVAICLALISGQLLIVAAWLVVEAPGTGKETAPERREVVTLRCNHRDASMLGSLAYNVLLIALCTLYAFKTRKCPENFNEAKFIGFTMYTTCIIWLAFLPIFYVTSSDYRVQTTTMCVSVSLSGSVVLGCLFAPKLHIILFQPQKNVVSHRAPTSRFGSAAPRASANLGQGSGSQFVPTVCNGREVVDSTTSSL

[20] = target: Metabotropic glutamate receptor 7 (Rattus norvegicus, UniProt P35400); assay: Agonist activity at rat mGluR7 receptor expressed in HEK293 cells by IP-1 HTRF assay; format: functional, cell-based
Chain of Metabotropic glutamate receptor 7 (P35400 whole entry): as the sequence (P35400 whole entry) above

[21] = target: Metabotropic glutamate receptor 8 (Rattus norvegicus, UniProt P70579); assay: Agonist activity at rat mGluR8 receptor expressed in HEK293 cells by IP-1 HTRF assay; format: functional, cell-based
[22] = target: Metabotropic glutamate receptor 1 (Rattus norvegicus, UniProt P23385); assay: Agonist activity at rat mGluR1 receptor expressed in HEK293 cells by IP-1 HTRF assay; format: functional, cell-based; settings: read-out: EC50
[23] = target: Metabotropic glutamate receptor 6 (Rattus norvegicus, UniProt P35349); assay: Agonist activity at rat mGluR6 receptor expressed in HEK293 cells by IP-1 HTRF assay; format: functional, cell-based; settings: read-out: EC50
[24] = target: Metabotropic glutamate receptor 4 (Rattus norvegicus, UniProt P31423); assay: Agonist activity at rat mGluR4 receptor expressed in HEK293 cells by IP-1 HTRF assay; format: functional, cell-based
[25] = target: Metabotropic glutamate receptor 3 (Rattus norvegicus, UniProt P31422); assay: Agonist activity at rat mGluR3 receptor expressed in HEK293 cells by IP-1 HTRF assay; format: functional, cell-based
[26] = target: Metabotropic glutamate receptor 5 (Rattus norvegicus, UniProt P31424); assay: Agonist activity at rat mGluR5 receptor expressed in HEK293 cells by IP-1 HTRF assay; format: functional, cell-based; settings: read-out: EC50
[27] = target: Metabotropic glutamate receptor 5 (Rattus norvegicus) (UniProt P31424); assay: Agonist activity at rat mGluR5 receptor expressed in HEK293 cells at 100 uM by IP-1 HTRF assay; format: functional, cell-based
[28] = target: Metabotropic glutamate receptor 4 (Rattus norvegicus) (UniProt P31423); assay: Agonist activity at rat mGluR4 receptor expressed in HEK293 cells at 100 uM by IP-1 HTRF assay; format: functional, cell-based
[29] = target: Metabotropic glutamate receptor 7 (Rattus norvegicus) (UniProt P35400); assay: Agonist activity at rat mGluR7 receptor expressed in HEK293 cells at 100 uM by IP-1 HTRF assay; format: functional, cell-based
[30] = target: Metabotropic glutamate receptor 1 (Rattus norvegicus) (UniProt P23385); assay: Agonist activity at rat mGluR1 receptor expressed in HEK293 cells at 100 uM by IP-1 HTRF assay; format: functional, cell-based
[31] = target: Metabotropic glutamate receptor 3 (Rattus norvegicus) (UniProt P31422); assay: Agonist activity at rat mGluR3 receptor expressed in HEK293 cells at 100 uM by IP-1 HTRF assay; format: functional, cell-based
[32] = target: Metabotropic glutamate receptor 6 (Rattus norvegicus) (UniProt P35349); assay: Agonist activity at rat mGluR6 receptor expressed in HEK293 cells at 100 uM by IP-1 HTRF assay; format: functional, cell-based
[33] = target: Metabotropic glutamate receptor 8 (Rattus norvegicus) (UniProt P70579); assay: Agonist activity at rat mGluR8 receptor expressed in HEK293 cells at 100 uM by IP-1 HTRF assay; format: functional, cell-based

Row | Compound | inhibition [3] | Activity [4] | inhibition [5] | inhibition [6] | Activity [7] | Activity [8] | Activity [9] | Activity [10] | inhibition [11] | inhibition [12] | inhibition [13] | inhibition [14] | Activity [15] | Activity [16] | inhibition [17] | further results
1 | N[C@H](C(=O)O)[C@H]1[C@@H](CO)[C@@H]1C(=O)O | – | – | – | – | – | – | – | – | – | – | – | – | – | – | – | EC50 [1]: 0.038 µM
2 | C[C@]1(C[C@H](N)C(=O)O)C[C@@H]1C(=O)O | inactive | inactive | inactive | inactive | inactive | inactive | inactive | inactive | inactive | inactive | inactive | inactive | inactive | inactive | inactive | Activity [2]: inactive
3 | C[C@H]1[C@H](C(=O)O)[C@H]1[C@H](N)C(=O)O | – | – | – | – | – | – | – | – | – | – | – | – | – | – | – | EC50 [1]: 0.038 µM; EC50 [18]: 0.008 µM
4 | C[C@]1(C(=O)O)C[C@@H]1[C@H](N)C(=O)O | inactive | inactive | inactive | inactive | inactive | inactive | inactive | inactive | inactive | inactive | inactive | inactive | inactive | inactive | inactive | EC50 ([19]; read-out: EC50): 4.1 µM
5 | N[C@@]1(C(=O)O)CC[C@@H](C(=O)O)C1 | – | – | – | – | – | – | – | – | – | – | – | – | – | – | – | EC50 [1]: 860 µM
6 | CC1(C[C@H](N)C(=O)O)CC1C(=O)O (stereo partly specified) | inactive | – | inactive | inactive | – | – | – | – | inactive | inactive | inactive | inactive | – | – | inactive | –
7 | N[C@H](C(=O)O)[C@H]1C[C@@H]1C(=O)O | – | – | – | – | – | – | – | – | – | – | – | – | – | – | – | EC50 [1]: 0.6 µM; EC50 [18]: 0.3 µM
8 | N[C@@H](CCP(=O)(O)O)C(=O)O | – | – | – | – | – | – | – | – | – | – | – | – | – | – | – | EC50 [20]: ~30 µM; EC50 [21]: ~30 µM; EC50 [23]: 2.5 µM; EC50 [24]: ~30 µM
9 | N[C@@H](CCC(=O)O)C(=O)O [GLUTAMIC ACID] | – | – | – | – | – | – | – | – | – | – | – | – | – | – | – | EC50 [1]: 9 µM
10 | C[C@@]1(C(=O)O)C[C@@H]1C[C@H](N)C(=O)O (mixture of isomers) | inactive | – | inactive | inactive | – | – | – | – | inactive | inactive | inactive | inactive | – | – | inactive | EC50 ([19]; read-out: EC50): 10 µM; EC50 ([19]; read-out: pEC50 (converted)): 15.8 µM; Activity [27]: inactive; Activity [28]: inactive; Activity [29]: inactive; Activity [30]: inactive; Activity [31]: inactive; Activity [32]: inactive; Activity [33]: inactive

The next lines start with results.

Row | inhibition [3] | Activity [4] | inhibition [5] | inhibition [6] | Activity [7] | Activity [8] | Activity [9] | Activity [10] | inhibition [11] | inhibition [12] | inhibition [13] | inhibition [14] | Activity [15] | Activity [16] | inhibition [17] | Compound | further results
11 | inactive | inactive | inactive | inactive | inactive | inactive | inactive | inactive | inactive | inactive | inactive | inactive | inactive | inactive | inactive | C[C@@]1(C[C@H](N)C(=O)O)C[C@@H]1C(=O)O | EC50 ([19]; read-out: EC50): 7.5 µM
12 | inactive | inactive | inactive | inactive | inactive | inactive | inactive | inactive | inactive | inactive | inactive | inactive | inactive | inactive | inactive | C[C@@]1(C(=O)O)C[C@@H]1C(N)C(=O)O (mixture of isomers) | EC50 ([19]; read-out: EC50): 8.9 µM
13 | inactive | inactive | inactive | inactive | inactive | inactive | inactive | inactive | inactive | inactive | inactive | inactive | inactive | inactive | inactive | C[C@]1(C(=O)O)C[C@H]1C(N)C(=O)O (mixture of isomers) | Activity [2]: inactive
14 | inactive | inactive | inactive | inactive | inactive | inactive | inactive | inactive | inactive | inactive | inactive | inactive | inactive | inactive | inactive | C[C@]1(C[C@H](N)C(=O)O)C[C@H]1C(=O)O | Activity [2]: inactive
15 | inactive | inactive | inactive | inactive | inactive | inactive | inactive | inactive | inactive | inactive | inactive | inactive | inactive | inactive | inactive | C[C@@]1(C[C@H](N)C(=O)O)C[C@H]1C(=O)O | Activity [2]: inactive
16 | inactive | – | inactive | inactive | – | – | – | – | inactive | inactive | inactive | inactive | – | – | inactive | CC[C@@]1(C(=O)O)C[C@H]1[C@H](N)C(=O)O | EC50 ([19]; read-out: EC50): 1.8 µM; EC50 ([19]; read-out: pEC50 (converted)): 1.82 µM; EC50 [20]: > 30 µM; EC50 [21]: > 30 µM; EC50 [22]: > 30 µM; EC50 [23]: 26.3 µM; EC50 [24]: > 30 µM; EC50 [25]: > 30 µM; EC50 [26]: > 30 µM
17 | inactive | inactive | inactive | inactive | inactive | inactive | inactive | inactive | inactive | inactive | inactive | inactive | inactive | inactive | inactive | CC[C@]1(C(=O)O)C[C@@H]1[C@H](N)C(=O)O | Activity [2]: inactive
